Test results taken from patent publication US20160222014A1, “COMPOUNDS FOR REGULATING FAK AND/OR SRC PATHWAYS” (ASANA BIOSCIENCES, LLC, priority 2013, published 2016).

The molecules below were run against T1, recombinant human FAK1 (Homo sapiens, UniProt Q05397) (assay: FAK1 HTRF assay). Details: not given.
T1 construct: fused on or other part: N-terminal 6xHis tag
T1 sequence (Q05397 422-680 limits assumed): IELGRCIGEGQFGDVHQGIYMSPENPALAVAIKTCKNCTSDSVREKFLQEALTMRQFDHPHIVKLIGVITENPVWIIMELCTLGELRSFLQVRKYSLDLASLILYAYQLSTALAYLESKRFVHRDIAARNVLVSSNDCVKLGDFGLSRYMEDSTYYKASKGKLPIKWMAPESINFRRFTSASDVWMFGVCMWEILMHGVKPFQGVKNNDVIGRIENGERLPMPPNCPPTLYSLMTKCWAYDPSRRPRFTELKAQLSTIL
Assay type: biochemical
In short: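 His-tagged human FAK1 (residues 692–end, Sf9-expressed), 10 nM final, with 0.5 μM biotinylated gastrin-precursor Tyr87 peptide and a 10 μM final reagent in pH 7.4 buffer, 45 min at rt. Detection used Eu anti-pTyr antibody plus SA-APC (665/620 nm). Compounds top concentration 10 μM; IC50 from % inhibition.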
For `COc1cc(N2CCNCC2)ccc1Nc1cc2c(cn1)C(C)(C)CN2S(=O)(=O)c1cccc2cccnc12` [Example 635], the IC50 was less than 0.02 µM.

Each molecule was assayed against T2, Recombinant Src enzyme (Homo sapiens, UniProt P12931) (assay: Src HTRF assay). Details: not given.
T2 construct: purchased Millipore 14-326; host or cells: Sf21 insect cells
T2 sequence (P12931 whole entry): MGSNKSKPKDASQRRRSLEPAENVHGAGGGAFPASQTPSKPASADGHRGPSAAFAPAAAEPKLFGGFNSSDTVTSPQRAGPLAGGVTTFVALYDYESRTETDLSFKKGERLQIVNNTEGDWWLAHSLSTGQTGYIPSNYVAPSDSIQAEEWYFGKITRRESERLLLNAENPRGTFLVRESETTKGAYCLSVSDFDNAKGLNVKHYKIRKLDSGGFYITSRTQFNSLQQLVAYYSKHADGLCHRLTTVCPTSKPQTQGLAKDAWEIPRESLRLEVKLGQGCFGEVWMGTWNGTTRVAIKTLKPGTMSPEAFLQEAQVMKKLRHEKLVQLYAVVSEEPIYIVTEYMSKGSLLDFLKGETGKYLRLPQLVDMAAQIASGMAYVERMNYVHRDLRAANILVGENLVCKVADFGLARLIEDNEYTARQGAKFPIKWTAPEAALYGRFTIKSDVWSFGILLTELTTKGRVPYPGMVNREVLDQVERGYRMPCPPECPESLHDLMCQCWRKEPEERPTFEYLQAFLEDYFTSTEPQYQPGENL
Assay type: biochemical
In short: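 Sf21-expressed recombinant Src at 5 nM final with biotinylated N-terminally tagged Tyk2 peptide substrate at 0.5 μM final; a component freshly made in enzyme assay buffer pH7.4 was used at 10 μM final. Buffer, supplements, compound handling and procedure as in the FAK HTRF assay; dasatinib included.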
`COc1cc(N2CCNCC2)ccc1Nc1cc2c(cn1)C(C)(C)CN2S(=O)(=O)c1cccc2cccnc12` [Example 635] was tested, and the IC50 was greater than 1 µM.

The molecules below were run against T3, AURKB (Aurora B) enzyme (Homo sapiens, UniProt Q96GD4) (assay: Aurora B HTRF assay). Details: read-out: AuroraB IC50.
T3 construct: purchased Invitrogen PVR 130
T3 sequence (Q96GD4 whole entry): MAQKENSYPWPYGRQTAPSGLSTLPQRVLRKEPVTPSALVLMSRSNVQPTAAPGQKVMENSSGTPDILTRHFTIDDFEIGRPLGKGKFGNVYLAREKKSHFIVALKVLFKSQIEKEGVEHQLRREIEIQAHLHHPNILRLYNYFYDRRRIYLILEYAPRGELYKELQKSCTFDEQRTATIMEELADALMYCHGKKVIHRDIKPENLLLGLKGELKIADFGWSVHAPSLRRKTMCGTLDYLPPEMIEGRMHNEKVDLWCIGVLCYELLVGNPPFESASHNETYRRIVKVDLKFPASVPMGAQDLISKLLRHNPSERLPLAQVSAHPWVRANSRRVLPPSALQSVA
Assay type: biochemical
In short: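 HTRF kinase assay with 5 nM Aurora B and 50 nM ULight-PLK (Ser137) peptide, with a reagent at 30 μM final; 1 h at rt. Reaction stopped with EDTA, and phospho-peptide detected with 2 nM Eu-anti-P-PLK(Ser137) antibody after 1 h at rt, read as HTRF.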
`COc1cc(N2CCNCC2)ccc1Nc1cc2c(cn1)C(C)(C)CN2S(=O)(=O)c1cccc2cccnc12` [Example 635] gave an IC50 greater than 1 µM.

Each molecule was assayed against T4, FAK phosphorylated at Y397 in HEK-FAK cell line overexpressing human FL FAK protein (Homo sapiens, UniProt Q05397) (assay: Cell based assay, Phospho-FAK ELISA). Details: HEK stb; read-out: pFAK EC50 (μM) HEK stb.
T4 construct: expressed in transfected cells
T4 sequence (Q05397 whole entry): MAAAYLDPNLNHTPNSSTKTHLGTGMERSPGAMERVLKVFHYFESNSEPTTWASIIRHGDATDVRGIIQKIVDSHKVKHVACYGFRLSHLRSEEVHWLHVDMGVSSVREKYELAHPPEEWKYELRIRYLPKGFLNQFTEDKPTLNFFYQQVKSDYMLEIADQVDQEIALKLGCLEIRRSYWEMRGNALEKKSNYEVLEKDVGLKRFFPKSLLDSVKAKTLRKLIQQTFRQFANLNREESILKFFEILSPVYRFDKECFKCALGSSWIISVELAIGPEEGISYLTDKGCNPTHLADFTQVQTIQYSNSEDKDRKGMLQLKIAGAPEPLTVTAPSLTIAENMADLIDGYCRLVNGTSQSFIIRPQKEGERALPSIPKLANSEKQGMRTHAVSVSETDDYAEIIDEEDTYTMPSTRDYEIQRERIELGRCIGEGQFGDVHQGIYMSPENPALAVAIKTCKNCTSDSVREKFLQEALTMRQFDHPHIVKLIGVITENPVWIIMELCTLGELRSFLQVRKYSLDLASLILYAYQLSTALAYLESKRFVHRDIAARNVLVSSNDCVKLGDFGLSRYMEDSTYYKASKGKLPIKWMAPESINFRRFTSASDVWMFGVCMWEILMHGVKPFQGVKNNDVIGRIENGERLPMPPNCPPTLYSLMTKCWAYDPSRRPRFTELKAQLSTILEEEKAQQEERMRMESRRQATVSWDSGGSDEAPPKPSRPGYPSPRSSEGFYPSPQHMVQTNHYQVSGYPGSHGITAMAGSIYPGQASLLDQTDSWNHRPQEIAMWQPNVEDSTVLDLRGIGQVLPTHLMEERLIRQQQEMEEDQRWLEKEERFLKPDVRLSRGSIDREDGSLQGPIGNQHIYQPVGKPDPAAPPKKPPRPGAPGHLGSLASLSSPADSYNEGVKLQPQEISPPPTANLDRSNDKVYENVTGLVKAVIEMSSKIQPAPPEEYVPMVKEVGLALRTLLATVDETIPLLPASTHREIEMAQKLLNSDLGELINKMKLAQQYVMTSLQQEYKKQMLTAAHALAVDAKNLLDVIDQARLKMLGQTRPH
Description: D. Cell Based Assay-Phospho-FAK ELISA
The DuoSet IC ELISA (R&D systems—Cat no. DYC4528-5) provided the basic components required for the development of sandwich ELISAs to measure Focal Adhesion Kinase 1 (FAK) phosphorylated at Y397 in cell lysates. An immobilized capture antibody specific for FAK, also known as PTK2, binds both phosphorylated and unphosphorylated protein. After washing away unbound material, a biotinylated detection antibody specific for FAK phosphorylated at Y397 was used to detect only phosphorylated protein, utilizing a standard Streptavidin-HRP format. The cell line used for the assay was a stable HEK-FAK cell line overexpressing human FL FAK protein, which was generated as follows.
HEK293 cells (ATCC® CRL-1573™, 10801 University Boulevard, Manassas, Va. 20110 USA) were seeded in four 100 mm petri dishes at a seeding density of 1.5×10^6 cells per plate and incubated overnight at 37° C. in a 5% CO2 incubator. The transfection mix was prepared as follows. (A) 10 μg DNA (pCDNA4 V5/HisA vector containing Zeocin as mammalian selection marker, procured from Invitrogen) with the full length human FAK gene represented by the nucleotide sequence provided in NCBI Reference Sequence: NM_153831.3, SEQ ID NO: 1:
was added to 1.5 mL Opti-MEM® (reduced serum media is a modification of Eagle's Minimum Essential Media, buffered with HEPES and sodium bicarbonate and supplemented with hypoxanthine, thymidine, sodium pyruvate, L-glutamine, trace elements and growth factors commercially available from Invitrogen) and incubated at room temperature for 5 minutes. (B) 30 μL Lipofectamine™ Transfection reagent (Life Technologies) was added to 1.5 mL Opti-MEM® and incubated at room temperature for 5 minutes. Following this, (a) and (b) were mixed and incubated at room temperature for 20 minutes. Media was removed from cells and washed with 1× phosphate buffered saline (PBS) and the transfection mix prepared above was mixed with 3 mL of Opti-MEM®, added to the cells and incubated at 37° C. Four hours later, 6 mL of 20% Dulbecco's Modified Eagle Medium (DMEM) was added to the plates and incubated at 37° C. in a 5% CO2 incubator. Approximately 72 hours after transfection, cells were subcultured at various dilutions with fresh medium containing 0.8 mg/mL Zeocin™ (Life Technologies). Cells were replenished with selective medium every 3-4 days until cell foci were identified in the FAK transfected cells and most of the cells died in the control plates. Cells from these foci were grown in the presence of selective media and the expression of FAK was confirmed by Western Blotting. Over expression of FAK in the stably-transfected cells was quantified in the cell-based ELISA assay described below by determining the signal window, with a signal window of 2 or above considered to be robust). The HEK-FAK stable cell line thus was maintained in 0.8 mg/mL Zeocin™ (Life Technologies) and used in cell-based ELISA to assess autophosphorylation of FAK.
(i) Materials • 1. Phospho-FAK (Y397)-Capture Antibody • 2. Phospho-FAK (Y397)-Detection Antibody • 3. Streptavidin-HRP • 4. Cells used for the assay-HEK over expressing human FL FAK protein
(ii) Solutions • PBS—137 mM NaCl, 2.7 mM KCl, 8.1 mM Na2HPO4, 1.5 mM KH2PO4, pH 7.2-7.4, 0.2 μm filtered. • Wash Buffer—0.05% Tween20™ in PBS, pH 7.2-7.4 • Block Buffer—1% BSA, 0.05% NaN3, in PBS, pH 7.2-7.4. • IC Diluent #1-1% BSA in PBS, pH 7.2-7.4, 0.2 μm filtered. • IC Diluent #8-1 mM EDTA, 0.5% Triton™ X-100, 5 mM NaF in PBS, pH 7.2-7.4. IC Diluent #8 was also the base buffer for IC Diluent #3, IC Diluent #7, and Lysis. • Buffer #6. […]
For `CN(C)Cc1ccc(Nc2ncc3ccn(Cc4cccnc4N(C)S(C)(=O)=O)c3n2)cc1` [Example 207], the EC50 was greater than 1 µM. `CN(c1ncccc1Cn1ccc2cnc(Nc3ccc4c(c3)OCCN4)nc21)S(C)(=O)=O` [Example 221] gave an EC50 greater than 1 µM. `Cc1ccccc1S(=O)(=O)n1ccc2cnc(Nc3ccc(N4CCNCC4)cc3)nc21` [Example 233] was tested, and the EC50 was greater than 1 µM. In the case of `O=S(=O)(c1ccccc1Cl)n1ncc2cnc(Nc3ccc(N4CCNCC4)cc3)nc21` [Example 254], the EC50 is reported as greater than 1 µM. `O=S(=O)(c1cccc(Cl)c1)n1ncc2cnc(Nc3ccc(N4CCNCC4)cc3)cc21` [Example 308] showed an EC50 greater than 1 µM. Work on `CC(=O)N1CCN(c2ccc(Nc3cc4c(cn3)cnn4S(=O)(=O)c3ccccc3C#N)cc2)CC1` [Example 341] yielded an EC50 greater than 1 µM. Molecule `CN(c1ncccc1Cn1ccc2cnc(Nc3ccc(N4CC5CC4CN5)cc3)nc21)S(C)(=O)=O` (centres unmarked) [Example 372] has an EC50 greater than 1 µM. `CN(c1ncccc1Cn1ncc2cnc(Nc3ccc(N4CCC(O)CC4)cc3)cc21)S(C)(=O)=O` [Example 394] showed an EC50 greater than 1 µM. With `CN(c1ccccc1Cn1ccc2cnc(Nc3ccc4c(c3)C(=O)NC4=O)nc21)S(C)(=O)=O` [Example 435] the EC50 was greater than 1 µM. In the case of `COc1c(Nc2ncc3ccn(Cc4ccccc4N(C)S(C)(=O)=O)c3n2)ccc(N2CCNCC2)c1F` [Example 456], the EC50 is reported as greater than 1 µM. `CC1(C)CN(S(=O)(=O)c2ccccc2OC(F)F)c2nc(Nc3ccc(N4CCNCC4)cc3)ncc21` [Example 464] gave an EC50 greater than 1 µM. For `C[C@H]1CN(C)CCN1c1ccc(Nc2ncc3ccn(Cc4cccnc4N(C)S(C)(=O)=O)c3n2)cc1` [Example 497], the EC50 was greater than 1 µM. `CN1CCCN(c2ccc(Nc3ncc4ccn(Cc5ccccc5N(C)S(C)(=O)=O)c4n3)cc2)CC1` [Example 520] was tested, and the EC50 was greater than 1 µM. In the case of `CC1CN(c2ccc(Nc3ncc4ccn(Cc5cccnc5N(C)S(C)(=O)=O)c4n3)cc2)CC(C)N1` (centres unmarked) [Example 522], the EC50 is reported as greater than 1 µM. `CN(C)C1CCN(c2ccc(Nc3ncc4ccn(Cc5cccnc5N(C)S(C)(=O)=O)c4n3)cc2)CC1` [Example 530] showed an EC50 greater than 1 µM. In the case of `C[C@@H]1CN(c2ccc(Nc3cc4c(ccn4S(=O)(=O)c4ccccc4C#N)cn3)cc2)CCN1` [Example 537], the EC50 is reported as greater than 1 µM. With `CN(c1ncccc1Cn1ccc2cnc(Nc3ccc4c(c3)CC3CNCCN43)nc21)S(C)(=O)=O` (centres unmarked) [Example 538] the EC50 was greater than 1 µM. Work on `CN(c1ncccc1Cn1ccc2cnc(Nc3ccc(N4CCNC(C)(C)C4=O)cc3)nc21)S(C)(=O)=O` [Example 540] yielded an EC50 greater than 1 µM. For `CN(c1ncccc1Cn1ccc2cnc(Nc3ccc(N4CCCNCC4)cc3)nc21)S(C)(=O)=O` [Example 549], the EC50 was greater than 1 µM. For `CN1C(=O)Cc2cc(Nc3ncc4ccn(Cc5cccnc5N(C)S(C)(=O)=O)c4n3)ccc21` [Example 560], the EC50 was greater than 1 µM. Work on `C[C@@H]1CN(c2ccc(Nc3ncc4ccn(Cc5cccnc5N(C)S(C)(=O)=O)c4n3)cc2F)CCN1` [Example 561] yielded an EC50 greater than 1 µM. Molecule `CN(c1ccccc1Cn1ccc2cnc(Nc3ccc(N4CCNCC4)c(CO)c3)nc21)S(C)(=O)=O` [Example 568] has an EC50 greater than 1 µM. For `CN(C)C1CN(c2ccc(Nc3ncc4ccn(Cc5cccnc5N(C)S(C)(=O)=O)c4n3)cc2)C1` [Example 580], the EC50 was greater than 1 µM. In the case of `CN(C)C1CCN(c2ccc(Nc3ncc4ccn(Cc5cccnc5N(C)S(C)(=O)=O)c4n3)cc2)C1` (centres unmarked) [Example 589], the EC50 is reported as greater than 1 µM. `CN(c1ncccc1Cn1ccc2cnc(Nc3ccc(OCCN4CCOCC4)cc3)nc21)S(C)(=O)=O` [Example 613] gave an EC50 greater than 1 µM. For `CCC1CN(c2ccc(Nc3ncc4ccn(Cc5cccnc5N(C)S(C)(=O)=O)c4n3)cc2)CCN1` (centres unmarked) [Example 645], the EC50 was greater than 1 µM. `C[C@H](O)CN1CCN(c2ccc(Nc3ncc4ccn(Cc5cccnc5N(C)S(C)(=O)=O)c4n3)cc2)C[C@@H]1C` [Example 663, N-(3-((2-((4-((S)-4-((S)-2-Hydroxypropyl)-3-methylpiperazin-1-yl)phenyl)amino)-7H-pyrrolo[2,3-d]pyrimidin-7-yl)methyl)pyridin-2-yl)-N-methylmethanesulfonamide] gave an EC50 greater than 1 µM. Work on `C[C@@H](O)CN1CCN(c2ccc(Nc3ncc4ccn(Cc5cccnc5N(C)S(C)(=O)=O)c4n3)cc2)CC1` [Example 666] yielded an EC50 greater than 1 µM. In the case of `CN(c1ncccc1Cn1ccc2cnc(Nc3ccc4[nH]ccc4c3)nc21)S(C)(=O)=O` [Example 667], the EC50 is reported as greater than 1 µM. With `CN(c1ncccc1Cn1ccc2cnc(Nc3ccc4[nH]c(C5CCNCC5)cc4c3)nc21)S(C)(=O)=O` [Example 677] the EC50 was greater than 1 µM. `CN(c1ncccc1Cn1ccc2cnc(Nc3ccc(NC4CCNCC4)cc3)nc21)S(C)(=O)=O` [Example 684] showed an EC50 greater than 1 µM. For `CN(c1ncccc1Cn1ccc2cnc(Nc3ccc(-c4ccc(=O)[nH]c4)cc3)nc21)S(C)(=O)=O` [Example 688], the EC50 was greater than 1 µM. `C[C@H](O)CN1CCN(c2ccc(Nc3ncc4ccn(Cc5cccnc5N(C)S(C)(=O)=O)c4n3)cc2)C[C@H]1C` [Example 694] was tested, and the EC50 was greater than 1 µM. `CN(c1ncccc1Cn1ccc2cnc(Nc3ccc4[nH]c(C(=O)N5CCNCC5)cc4c3)nc21)S(C)(=O)=O` [Example 696] was tested, and the EC50 was greater than 1 µM. For `CN(c1ccccc1Cn1ccc2cnc(Nc3ccc4[nH]c(C(=O)N5CCNCC5)cc4c3)nc21)S(C)(=O)=O` [Example 698], the EC50 was greater than 1 µM. Work on `C[C@H]1CN(c2ccc(Nc3ncc4ccn(Cc5ccccc5NS(=O)(=O)CCCF)c4n3)cc2)CCN1` [Example 723] yielded an EC50 greater than 1 µM. With `C[C@@H]1CN(c2ccc(Nc3ncc4c(n3)N(c3ccccn3)CC4(C)C)cc2)CCN1` [Example 726] the EC50 was greater than 1 µM. For `CN(c1ncccc1Cn1ccc2cnc(Nc3ccc(N4CCNC(CF)C4)cc3)nc21)S(C)(=O)=O` (centres unmarked) [Example 737, N-(3-((2-((4-(3-(fluoromethyl)piperazin-1-yl)phenyl)amino)-7H-pyrrolo[2,3-d]pyrimidin-7-yl)methyl)pyridin-2-yl)-N-methylmethanesulfonamide], the EC50 was greater than 1 µM. For `CN(c1ncccc1Cn1ccc2cnc(Nc3ccc(N4CCCC(N)C4)cc3)nc21)S(C)(=O)=O` (centres unmarked) [Example 776], the EC50 was greater than 1 µM.

Same assay, conditions: HEK stb; read-out: pFAK EC50 HEK stb
With `Cc1cc(Nc2ncc3ccn(Cc4cccnc4N(C)S(C)(=O)=O)c3n2)ccc1C1CCN(CCO)CC1` [Example 887] the EC50 was greater than 1 µM. Work on `CNC(=O)c1ccc(Nc2ncc3ccn(Cc4cccnc4N(C)S(C)(=O)=O)c3n2)cc1` [Example 982] yielded an EC50 greater than 1 µM.
